Measurements from patent US12180146B2, “Antihypertensive polyol compound and derivative thereof” (TAO PHARMACEUTICAL (SUZHOU) CO., LTD, priority 2020, dated 2024).

Test system: spontaneously hypertensive rats (SHR)
Test: Antihypertensive activity test: blood pressure and heart rate of spontaneously hypertensive rats (SHR)
Format: in vivo, rat
Settings: 200 mg/kg
Description: Tested Drugs: Compounds of the Invention. The dosage of all compound was uniformly set to 200 mg/kg.
In the test, changes in the blood pressure before and after the administration were detected, and compared with the basic value, a reduction of SBP ≥20 mmHg after administration was judged as effective antihypertensive effects; and at the same time, changes in the heart rate before and after the administration were detected.
Heart rate was expressed as mean±standard deviation (x±s). The changes of heart rate before and after the administration were compared by using Two-sample equal variance paired t test, and P<0.05 was regarded as the standard of statistically significant difference.

Structure (SMILES)	SBP Difference before and after administration, 1 h [mmHg]	SHR blood pressure (SBP), time after administration 1 h (n = 8) [mmHg]	SBP Difference before and after administration, 2 h [mmHg]	SHR blood pressure (SBP), time after administration 2 h (n = 8) [mmHg]	SBP Difference before and after administration, 3 h [mmHg]	SHR blood pressure (SBP), time after administration 3 h (n = 8) [mmHg]	SBP Difference before and after administration, 4 h [mmHg]	SHR blood pressure (SBP), time after administration 4 h (n = 8) [mmHg]	SBP Difference before and after administration, 5 h [mmHg]	SHR blood pressure (SBP), time after administration 5 h (n = 8) [mmHg]	SBP Difference before and after administration, 6 h [mmHg]	SHR blood pressure (SBP), time after administration 6 h (n = 8) [mmHg]	SHR blood pressure (SBP), time after administration 0 h (0 h, n = 8) [mmHg]
OCC(O)C(OC1OC(CO)C(O)C(O)C1O)c1ccc(O)cc1 (stereo not shown) [Compound 18]	16	176 ± 6.39	18	174 ± 4.50	21	171 ± 9.15	19	173 ± 13.7	18	174 ± 15.9	14	178 ± 8.78	–
CCOC(=O)OC(CO)c1cccc(CC)c1 (stereo not shown) [Compound 19]	12	182 ± 11.6	16	178 ± 10.8	17	177 ± 10.9	13	181 ± 15.80	10	184 ± 16.0	8	186 ± 17.7	–
COP(=O)(OC)OCC(O)c1ccccc1 (stereo not shown) [Compound 20]	6	186 ± 9.55	10	182 ± 7.36	3	189 ± 4.07	9	183 ± 7.15	7	185 ± 5.61	2	190 ± 6.66	192 ± 7.98
CC(C)(O)[C@H](O)[C@H](O)c1cccc2[nH]ccc12 [Compound 21]	11	184 ± 10.6	13	182 ± 10.4	12	183 ± 9.90	17	178 ± 6.61	13	182 ± 7.25	11	184 ± 12.1	–
